Source: PubChem BioAssay (NCI)
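96-well plates; 48 h exposure; 5 concentrations. Endpoints by linear interpolation between flanking doses. Not reached: highest tested concentration assigned. The concentration for 50% growth inhibition is given as GI50. At the TGI there is no net growth.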

How the values were obtained:
Assay in all cases: DTP human tumour cell line panel, 48 h
[1] = tested on: HOP-62 NSCLC
[2] = tested on: LOX IMVI melanoma
[3] = tested on: MCF7 breast
[4] = tested on: DU-145 prostate
[5] = tested on: IGROV1 ovarian
[6] = tested on: SK-OV-3 ovarian
[7] = tested on: UO-31 renal
[8] = tested on: OVCAR-4 ovarian
[9] = tested on: SR leukemia
[10] = tested on: M14 melanoma
[11] = tested on: HCT-116 colon
[12] = tested on: HCT-15 colon
[13] = tested on: SNB-75 CNS
[14] = tested on: NCI-H226 lung
[15] = tested on: HL-60(TB) leukemia
[16] = tested on: OVCAR-5 ovarian
[17] = tested on: T-47D breast
[18] = tested on: NCI/ADR-RES ovarian
[19] = tested on: U251 CNS
[20] = tested on: K-562 leukemia
[21] = tested on: CCRF-CEM leukemia
[22] = tested on: UACC-62 melanoma
[23] = tested on: TK-10 renal
[24] = tested on: PC-3 prostate
[25] = tested on: HS 578T breast
[26] = tested on: RPMI-8226 leukemia
[27] = tested on: SW-620 colon
[28] = tested on: MOLT-4 leukemia
[29] = tested on: OVCAR-8 ovarian
[30] = tested on: KM12 colon
[31] = tested on: CAKI-1 renal
[32] = tested on: SNB-19 CNS
[33] = tested on: OVCAR-3 ovarian
[34] = tested on: BT-549 breast
[35] = tested on: HT29 colon
[36] = tested on: 786-0 renal
[37] = tested on: SK-MEL-28 melanoma
[38] = tested on: SF-295 CNS
[39] = tested on: A549 NSCLC
[40] = tested on: MALME-3M melanoma
[41] = tested on: HCC-2998 colon
[42] = tested on: SN12C renal
[43] = tested on: SF-539 CNS
[44] = tested on: MDA-MB-231 breast
[45] = tested on: EKVX NSCLC
[46] = tested on: NCI-H522 lung
[47] = tested on: HOP-92 NSCLC
[48] = tested on: ACHN renal
[49] = tested on: UACC-257 melanoma
[50] = tested on: COLO 205 colon
[51] = tested on: SK-MEL-2 melanoma
[52] = tested on: MDA-MB-435
[53] = tested on: NCI-H460 lung
[54] = tested on: SF-268 CNS
[55] = tested on: RXF 393 renal
[56] = tested on: SK-MEL-5 melanoma
[57] = tested on: A498 renal
[58] = tested on: NCI-H23 lung

`CS(=O)c1nccc(-c2c(-c3ccc(F)c(OCCc4ccc(F)cc4)c3)nc3sccn23)n1` (stereo not drawn) was tested, and the GI50 [1] was 16.2 µM, the TGI [1] was 32.2 µM and the GI50 [2] was 10.5 µM. The TGI [2] was 23.4 µM, the GI50 [3] was 2.02 µM and the TGI [3] was 4.81 µM. The GI50 [4] was 4.13 µM, the TGI [4] was 14.5 µM and the GI50 [5] was 2.48 µM. The TGI [5] was 6.65 µM, the GI50 [6] was greater than 100 µM and the TGI [6] was greater than 100 µM. For the same compound, the GI50 [7] was 1.82 µM, the TGI [7] was 4.11 µM and the GI50 [8] was 14.7 µM. For the same compound, the TGI [8] was 28.6 µM, the GI50 [9] was 4.22 µM and the TGI [9] was 28.8 µM. For the same compound, the GI50 [10] was 15.2 µM, the TGI [10] was 30.4 µM and the GI50 [11] was 3.52 µM. The TGI [11] was 12.4 µM, the GI50 [12] was 3.95 µM and the TGI [12] was 16.9 µM. For the same compound, the GI50 [13] was 21.2 µM, the TGI [13] was greater than 100 µM and the GI50 [14] was 15.5 µM. It also gave a TGI [14] of 32.4 µM, a GI50 [15] of 2.5 µM and a TGI [15] of 6.05 µM. The GI50 [16] was 39.9 µM, the TGI [16] was greater than 100 µM and the GI50 [17] was 2.49 µM. The TGI [17] was 6.12 µM, the GI50 [18] was 20.3 µM and the TGI [18] was 49 µM. The GI50 [19] was 28.8 µM, the TGI [19] was greater than 100 µM and the GI50 [20] was 3.04 µM. For the same compound, the TGI [20] was 11.7 µM, the GI50 [21] was 5.16 µM and the TGI [21] was 24 µM. The GI50 [22] was 16.1 µM, the TGI [22] was 33.2 µM and the GI50 [23] was 30.9 µM. The TGI [23] was greater than 100 µM, the GI50 [24] was 11.9 µM and the TGI [24] was 27.4 µM. The GI50 [25] was 19.9 µM, the TGI [25] was 79.6 µM and the GI50 [26] was 4.84 µM. The TGI [26] was 28.4 µM, the GI50 [27] was 3.5 µM and the TGI [27] was 14.1 µM. For the same compound, the GI50 [28] was 4.04 µM, the TGI [28] was 15.8 µM and the GI50 [29] was 14.3 µM. The TGI [29] was 28 µM, the GI50 [30] was 14.5 µM and the TGI [30] was 29.2 µM. It also gave a GI50 [31] of 11.1 µM, a TGI [31] of 23 µM and a GI50 [32] of 14.6 µM. For the same compound, the TGI [32] was 29.3 µM, the GI50 [33] was 3.45 µM and the TGI [33] was 12.9 µM. It also gave a GI50 [34] of 18.4 µM, a TGI [34] of 37.5 µM and a GI50 [35] of 14.9 µM. It also gave a TGI [35] of 30.1 µM, a GI50 [36] of 34.8 µM and a TGI [36] greater than 100 µM. For the same compound, the GI50 [37] was 9.81 µM, the TGI [37] was 21.5 µM and the GI50 [38] was greater than 100 µM. It also gave a TGI [38] greater than 100 µM, a GI50 [39] greater than 100 µM and a TGI [39] greater than 100 µM. For the same compound, the GI50 [40] was 15.3 µM, the TGI [40] was 33.3 µM and the GI50 [41] was 11.7 µM. It also gave a TGI [41] of 24.9 µM, a GI50 [42] of 15.2 µM and a TGI [42] of 33.7 µM. For the same compound, the GI50 [43] was 18 µM, the TGI [43] was 41 µM and the GI50 [44] was 14.6 µM. It also gave a TGI [44] of 31.9 µM, a GI50 [45] of 17 µM and a TGI [45] of 42.3 µM. The GI50 [46] was 13.5 µM, the TGI [46] was 29.7 µM and the GI50 [47] was 6.72 µM. The TGI [47] was 26.7 µM, the GI50 [48] was 2.07 µM and the TGI [48] was 4.37 µM. For the same compound, the GI50 [49] was 14.6 µM, the TGI [49] was 29.5 µM and the GI50 [50] was 28.4 µM. For the same compound, the TGI [50] was greater than 100 µM, the GI50 [51] was 15.6 µM and the TGI [51] was 29.7 µM. For the same compound, the GI50 [52] was 16.7 µM, the TGI [52] was 32.2 µM and the GI50 [53] was 4.89 µM. For the same compound, the TGI [53] was 17.4 µM, the GI50 [54] was 16.1 µM and the TGI [54] was 32.1 µM. It also gave a GI50 [55] of 13.3 µM, a TGI [55] of 26.3 µM and a GI50 [56] of 23.4 µM. For the same compound, the TGI [56] was 58.7 µM, the GI50 [57] was greater than 100 µM and the TGI [57] was greater than 100 µM.
`C#C[C@]1(O)CC[C@H]2[C@@H]3CC=C4c5sc(-c6cccc(O)c6)nc5CC[C@]4(C)[C@H]3CC[C@@]21C` showed a GI50 [1] of 1.48 µM, a TGI [1] of 4.39 µM and a GI50 [2] of 0.269 µM. For the same compound, the TGI [2] was 1.26 µM, the GI50 [3] was 1.56 µM and the TGI [3] was 4.39 µM. The GI50 [4] was 2.45 µM, the TGI [4] was 17.5 µM and the GI50 [5] was 2.98 µM. The TGI [5] was 10.3 µM, the GI50 [6] was 2.07 µM and the TGI [6] was 6.83 µM. It also gave a GI50 [7] of 0.46 µM, a TGI [7] of 5.75 µM and a GI50 [8] of 2.73 µM. It also gave a TGI [8] of 9.52 µM, a GI50 [9] of 0.46 µM and a TGI [9] greater than 100 µM. It also gave a GI50 [10] of 0.252 µM, a TGI [10] of 0.671 µM and a GI50 [11] of 0.993 µM. The TGI [11] was 3 µM, the GI50 [12] was 0.505 µM and the TGI [12] was 1.94 µM. The GI50 [13] was 0.319 µM, the TGI [13] was 6.1 µM and the GI50 [14] was 5.25 µM. For the same compound, the TGI [14] was 25 µM, the GI50 [15] was 0.835 µM and the TGI [15] was 6.12 µM. It also gave a GI50 [16] of 2.25 µM, a TGI [16] of 5.93 µM and a GI50 [17] of 2.58 µM. For the same compound, the TGI [17] was 7.27 µM, the GI50 [18] was 1.95 µM and the TGI [18] was 5.58 µM. It also gave a GI50 [19] of 0.688 µM, a TGI [19] of 2.96 µM and a GI50 [20] of 0.506 µM. For the same compound, the TGI [20] was greater than 100 µM, the GI50 [21] was 0.339 µM and the TGI [21] was greater than 100 µM. The GI50 [22] was 2.3 µM, the TGI [22] was 5.55 µM and the GI50 [23] was 2.76 µM. For the same compound, the TGI [23] was 9.19 µM, the GI50 [24] was 0.357 µM and the TGI [24] was 1.72 µM. It also gave a GI50 [25] of 0.207 µM, a TGI [25] of 0.642 µM and a GI50 [26] of 0.157 µM. For the same compound, the TGI [26] was 0.725 µM, the GI50 [27] was 0.653 µM and the TGI [27] was 2.36 µM. The GI50 [29] was 2.1 µM, the TGI [29] was greater than 100 µM and the GI50 [30] was 1.15 µM. It also gave a TGI [30] of 5 µM, a GI50 [31] of 2.25 µM and a TGI [31] of 5.15 µM. For the same compound, the GI50 [32] was 1.26 µM, the TGI [32] was 4.28 µM and the GI50 [33] was 2.48 µM. For the same compound, the TGI [33] was 7.46 µM, the GI50 [34] was 1.07 µM and the TGI [34] was 3.47 µM. It also gave a GI50 [35] of 3.17 µM, a TGI [35] of 10.8 µM and a GI50 [36] of 0.386 µM. The TGI [36] was 1.88 µM, the GI50 [37] was 0.236 µM and the TGI [37] was 0.64 µM. For the same compound, the GI50 [38] was 0.178 µM, the TGI [38] was 0.437 µM and the GI50 [39] was 2.57 µM. The TGI [39] was 11 µM, the GI50 [40] was 0.421 µM and the TGI [40] was 2.98 µM. It also gave a GI50 [41] of 1.81 µM, a TGI [41] of 5.12 µM and a GI50 [42] of 2.3 µM. For the same compound, the TGI [42] was 9.98 µM, the GI50 [43] was 0.151 µM and the TGI [43] was 0.538 µM. For the same compound, the GI50 [58] was 1.55 µM, the TGI [58] was 3.67 µM and the GI50 [44] was 1.05 µM. It also gave a TGI [44] of 4.1 µM, a GI50 [45] of 2.5 µM and a TGI [45] of 10.7 µM. For the same compound, the GI50 [46] was 1.48 µM, the TGI [46] was 3.58 µM and the GI50 [47] was 1.45 µM. It also gave a TGI [47] of 3.07 µM, a GI50 [48] of 0.687 µM and a TGI [48] of 6.72 µM. It also gave a GI50 [49] of 1.86 µM, a TGI [49] of 4.63 µM and a GI50 [50] of 5.41 µM. For the same compound, the TGI [50] was 20.8 µM, the GI50 [51] was 0.528 µM and the TGI [51] was 2.39 µM. For the same compound, the GI50 [52] was 1.32 µM, the TGI [52] was 3.94 µM and the GI50 [53] was 2.57 µM. For the same compound, the TGI [53] was 7.13 µM, the GI50 [54] was 1.99 µM and the TGI [54] was 17.5 µM. For the same compound, the GI50 [55] was 0.177 µM, the TGI [55] was 0.449 µM and the GI50 [56] was 1.65 µM. For the same compound, the TGI [56] was 3.06 µM, the GI50 [57] was 15.2 µM and the TGI [57] was 32.5 µM.
